Laboratory results taken from patent US9572813B2, “Antiviral agent” (SHIONOGI & CO., LTD., priority 2001, dated 2017).

| Structure (SMILES) | melting point |
| --- | --- |
| CN1CC(C(=O)c2cnn(Cc3ccc(F)cc3)c2)=C(O)C1=O | 150 to 151 °C |
| CC(C)N1CC(C(=O)c2cnn(Cc3ccc(F)cc3)c2)=C(O)C1=O | 129.5 to 131 °C |
| CC(C)N1CC(C(=O)c2cnc(Cc3ccc(F)cc3)o2)=C(O)C1=O | 174 to 178 °C |
| CN1CC(C(=O)c2nc(Cc3ccc(F)cc3)co2)=C(O)C1=O | 209 to 210 °C |
| CN1CC(C(=O)c2cc(Cc3ccc(F)cc3)co2)=C(O)C1=O | 143 to 145 °C |
| COc1cc(F)ccc1Cc1ccc(C(=O)C2=C(O)C(=O)N(C)C2)o1 | 134 to 135 °C |
| COc1cc(Cc2ccc(C(=O)C3=C(O)C(=O)N(C(C)C)C3)o2)ccc1F | 160 to 161 °C |
| COc1cc(Cc2ccc(C(=O)C3=C(O)C(=O)N(C)C3)o2)ccc1F | 164 to 166 °C |
| CC(C)N1CC(C(=O)c2ccc(Cc3ccccc3)o2)=C(O)C1=O | 162 to 163 °C |
| CN1CC(C(=O)c2ccc(Cc3ccccc3)o2)=C(O)C1=O | 116 to 118 °C |
| CN1CC(C(=O)c2oc(C3CCCCC3)cc2Cc2ccc(F)cc2)=C(O)C1=O | 175 to 176 °C |
| CCC(CC)N1CC(C(=O)c2ccc(Cc3ccc(F)cc3)o2)=C(O)C1=O | 140 to 141 °C |
| CN1CC(C(=O)c2oc(C(=O)N3CCOCC3)cc2Cc2ccc(F)cc2)=C(O)C1=O | 209 to 211 °C (dec.) |
| CN1CC(C(=O)c2cc(C(=O)O)c(Cc3ccc(F)cc3)o2)=C(O)C1=O | 255 to 258 °C (dec.) |
| CCNC(=O)c1cc(C(=O)C2=C(O)C(=O)N(C)C2)oc1Cc1ccc(F)cc1 | 169 to 170 °C |
| CN1CC(C(=O)c2cc(C(=O)NCc3ccccc3)c(Cc3ccc(F)cc3)o2)=C(O)C1=O | 181 to 184 °C |
| CC(C)N1C(=O)C(O)=C(C(=O)c2ccc(Cc3ccc(F)cc3)o2)C1C (stereo not shown) | 120 to 122 °C |
| C=CCN1CC(C(=O)c2ccc(Cc3ccc(F)cc3)o2)=C(O)C1=O | 95 to 96.5 °C |
| O=C(C1=C(O)C(=O)N(Cc2ccccc2)C1)c1ccc(Cc2ccc(F)cc2)o1 | 129 to 130 °C |
| CCC(O)CN1CC(C(=O)c2ccc(Cc3ccc(F)cc3)o2)=C(O)C1=O (stereo not shown) | 132 to 133 °C |
| CCCC(O)CN1CC(C(=O)c2ccc(Cc3ccc(F)cc3)o2)=C(O)C1=O (stereo not shown) | 171 °C |
| O=C(C1=C(O)C(=O)N(CC(O)CO)C1)c1ccc(Cc2ccc(F)cc2)o1 (stereo not shown) | 119 to 120 °C |
| O=C(C1=C(O)C(=O)N(CCN2CCCCC2)C1)c1ccc(Cc2ccc(F)cc2)o1 | 228 to 232 °C (dec.) |
| CN1CC(C(=O)c2ccoc2Cc2ccc(F)cc2)=C(O)C1=O | 171 to 172 °C |
| O=C(C1=C(O)C(=O)N(CCO)C1)c1occc1Cc1ccc(F)cc1 | 195 to 196 °C |

| Structure (SMILES) | melting point |
| --- | --- |
| COCCN1CC(C(=O)c2occc2Cc2ccc(F)cc2)=C(O)C1=O | 170 °C |
| CCN1CC(C(=O)c2occc2Cc2ccc(F)cc2)=C(O)C1=O | 167 °C |
| O=C(C1=C(O)C(=O)N(CC(O)CO)C1)c1occc1Cc1ccc(F)cc1 (stereo not shown) | 208 to 210 °C |
| Cc1cc(Cc2ccc(F)cc2)c(C(=O)C2=C(O)C(=O)N(C)C2)o1 | 154 to 156 °C |
| Cc1cc(Cc2ccc(F)cc2)c(C(=O)C2=C(O)C(=O)N(C(C)C)C2)o1 | 125 to 127 °C |
| CN1CC(C(=O)c2oc(Cc3ccc(F)cc3)cc2Cc2ccc(F)cc2)=C(O)C1=O | 157 to 160 °C |
| CC(C)N1CC(C(=O)c2oc(Cc3ccc(F)cc3)cc2Cc2ccc(F)cc2)=C(O)C1=O | 159 to 161 °C |
| CN1CC(C(=O)c2oc(C(C)(C)C)cc2Cc2ccc(F)cc2)=C(O)C1=O | 179 to 181 °C |
| Cc1ccc(-c2cc(Cc3ccc(F)cc3)c(C(=O)C3=C(O)C(=O)N(C)C3)o2)cc1 | 242 to 245 °C |
| CC(C)(C)c1cc(Cc2ccc(F)cc2)c(C(=O)C2=C(O)C(=O)N(C3CC3)C2)o1 | 148 to 150 °C |
| Cc1nc(C(=O)C2=C(O)C(=O)N(C)C2)c(Cc2ccc(F)cc2)o1 | 170 °C |
| CC(C)N1CC(C(=O)c2cn(Cc3ccc(F)cc3)cn2)=C(O)C1=O | 224 to 226 °C |
| CC(C)N1CC(C(=O)c2cncn2Cc2ccc(F)cc2)=C(O)C1=O | 156 to 159 °C |
| CN1CC(C(=O)c2ccc(Cc3ccc(F)cc3)[nH]2)=C(O)C1=O | 221 to 223 °C |
| CN1CC(C(=O)c2c[nH]cc2Cc2ccc(F)cc2)=C(O)C1=O | 265 to 267 °C |
| CN1CC(c2cnc(Cc3ccc(F)cc3)cn2)=C(O)C1=O | 223 to 225 °C |
| CC(C)N1CC(c2cnc(Cc3ccc(F)cc3)cn2)=C(O)C1=O | 207 to 209 °C |
| CN1CC(c2ncnc(OCc3ccc(F)cc3)n2)=C(O)C1=O | 169 to 171 °C |
| CN1CC(c2ncc(CCc3ccc(F)cc3)s2)=C(O)C1=O | 214 to 216 °C |
| CN1CC(c2ncc(Cc3ccc(F)cc3)s2)=C(O)C1=O | 222 to 224 °C |
| CC(C)N1CC(c2ncc(Cc3ccc(F)cc3)s2)=C(O)C1=O | 212 to 214 °C |
| CC(C)c1ccccc1COc1cc(C2=C(O)C(=O)N(C)C2)ncn1 | 240 to 241 °C |
| CN1CC(c2cc(CCc3ccc(F)cc3)ncn2)=C(O)C1=O | 225 to 228 °C |
| CC(C)N1CC(c2cc(CCc3ccc(F)cc3)ncn2)=C(O)C1=O | 225 to 228 °C |
| CN1CC(c2cc(C(Cc3ccc(F)cc3)Cc3ccc(F)cc3)ncn2)=C(O)C1=O | 162 to 164 °C |

| Structure (SMILES) | melting point |
| --- | --- |
| CC(C)N1CC(c2cc(C(Cc3ccc(F)cc3)Cc3ccc(F)cc3)ncn2)=C(O)C1=O | 181 to 183 °C |
| CN1CC(c2ccc(Oc3ccccc3)cn2)=C(O)C1=O | 200 to 202 °C |
| CC(C)N1CC(c2ccc(Oc3ccccc3)cn2)=C(O)C1=O | 181 to 183 °C |
| CN1CC(c2ccc(Oc3ccc(F)cc3)cn2)=C(O)C1=O | 229 to 230 °C |
| CC(C)N1CC(c2ccc(Oc3ccc(F)cc3)cn2)=C(O)C1=O | 178 to 179 °C |
| CN1CC(c2ccc(OCc3ccc(F)cc3)cn2)=C(O)C1=O | 210 to 211 °C |
| CN1CC(c2ccc([S+]([O-])c3ccc(F)cc3)cn2)=C(O)C1=O (stereo not shown) | 228 to 230 °C |
| CN1CC(c2ncc(Cc3ccc(F)cc3)cn2)=C(O)C1=O | 163 to 165 °C |
| CC(C)N1CC(c2ncc(Cc3ccc(F)cc3)cn2)=C(O)C1=O | 155 to 157 °C |
| CN1CC(c2ncc(Oc3ccccc3)cn2)=C(O)C1=O | 207 to 208 °C |
| CN1CC(c2ncc(Oc3ccc(F)cc3)cn2)=C(O)C1=O | 230 to 232 °C |
| CC(C)N1CC(c2ncc(Oc3ccc(F)cc3)cn2)=C(O)C1=O | 165 to 166 °C |
| CC(C)N1CC(c2cc(CCc3ccccc3)ncn2)=C(O)C1=O | 229 to 231 °C |
| CCC(CC)N1CC(c2cc(CCc3ccccc3)ncn2)=C(O)C1=O | 182 to 183 °C |
| CC(C)N1CC(c2nccc(OCc3ccc(F)cc3)n2)=C(O)C1=O | 148 to 149 °C |
| CC(C)N1CC(c2ncc(OCc3ccc(F)cc3)cn2)=C(O)C1=O | 219 to 221 °C |
| CN1CC(c2nccc(CCc3ccccc3)n2)=C(O)C1=O | 118 to 119 °C |
| CC(C)N1CC(c2nccc(CCc3ccccc3)n2)=C(O)C1=O | 126 to 127 °C |
| CN1CC(c2ccc(Oc3ccccc3)nn2)=C(O)C1=O | 220 to 225 °C |
| CC(C)N1CC(c2ccc(Oc3ccccc3)nn2)=C(O)C1=O | 203 to 205 °C |
| CC(C)N1CC(c2ccc(Oc3ccc(F)cc3)nn2)=C(O)C1=O | 204 to 206 °C |
| CN1CC(c2cc(CCc3ccccc3)cnn2)=C(O)C1=O | 203 to 205 °C |
| CN1CC(c2cnc(Oc3ccccc3)cn2)=C(O)C1=O | 233 to 235 °C |
| CC(C)N1CC(c2cnc(Oc3ccccc3)cn2)=C(O)C1=O | 216 to 217 °C |
| CN1CC(c2cnc(Oc3ccc(F)cc3)cn2)=C(O)C1=O | 237 to 238 °C |

| Structure (SMILES) | melting point |
| --- | --- |
| CC(C)N1CC(c2cnc(Oc3ccc(F)cc3)cn2)=C(O)C1=O | 227 to 229 °C |
| CCOC(=O)c1oc2ccc(OCc3ccc(F)cc3)cc2c(=O)c1O | 190 to 192 °C |
| Cn1cnc(-c2oc3cccc(OCc4ccc(F)cc4)c3c(=O)c2O)n1 | 264 to 266 °C |
| Cc1nc(-c2oc3cccc(OCc4ccc(F)cc4)c3c(=O)c2O)n[nH]1 | 289 to 292 °C |
| O=c1c(O)c(-c2nc[nH]n2)oc2cccc(OCc3ccc(F)cc3)c12 | 254 to 256 °C |
| O=c1c(O)c(-c2ncccn2)oc2cccc(OCc3ccc(F)cc3)c12 | 252 to 254 °C |
| Cn1ncnc1-c1oc2cc(C(=O)O)cc(OCc3ccc(F)cc3)c2c(=O)c1O | 280 to 282 °C |
| Cn1ncnc1-c1oc2cccc(CCc3ccc(F)cc3)c2c(=O)c1O | 192 to 193 °C |
| O=c1c(O)c(-c2ncn(Cc3ccc(F)cc3)n2)oc2ccccc12 | 260 to 262 °C |
| O=C(NCc1ccc(F)cc1)c1oc2ccccc2c(=O)c1O | 235 to 236 °C |
| O=C(c1ccc(Cc2ccc(F)cc2)o1)c1oc2ccccc2c(=O)c1O | 226 to 227 °C |
| Cn1c(-c2nnc(Cc3ccc(F)cc3)o2)c(O)c(=O)c2ccccc21 | 222 °C |
| COCc1cc(=O)c(O)c(C(=O)c2ccc(Cc3ccc(F)cc3)o2)o1 | 147 to 148 °C |
| COC(=O)c1cc(=O)c(O)c(C(=O)c2ccc(Cc3ccc(F)cc3)o2)o1 | 174 to 176 °C |
| O=C(c1ccc(Cc2ccc(F)cc2)o1)c1oc(C(=O)N2CCCCC2)cc(=O)c1O | 146 to 148 °C |
| N#Cc1cc(=O)c(O)c(C(=O)c2ccc(Cc3ccc(F)cc3)o2)o1 | 190 to 194 °C (dec.) |
| O=C(c1ccc(Cc2ccc(F)cc2)o1)c1occ(Br)c(=O)c1O | 191 to 192 °C |
| Cc1nc(=O)c(O)c(-c2ccc(Oc3ccc(F)cc3)cn2)[nH]1 | 255 to 256 °C |
| Cc1nc(=O)c(O)c(-c2nnc(Cc3ccc(F)cc3)o2)[nH]1 | 283 to 286 °C |
| Cn1c(C(=O)c2ccc(Cc3ccc(F)cc3)o2)c(O)c(=O)n1C | 110 to 111 °C |
| O=C1NCCC(C(=O)c2ccc(Cc3ccc(F)cc3)o2)=C1O | 166 to 168 °C |
| O=C(c1ccc(Cc2ccc(F)cc2)o1)c1cc[nH]c(=O)c1O | 229 to 231 °C |
